EC50 data for eleven molecules are collected here from patent US9822069B2, “Urea derivative or pharmacologically acceptable salt thereof” (KYORIN PHARMACEUTICAL CO. LTD., priority 2013, dated 2017).

The target in the test is T1, human FPRL1 (Homo sapiens, UniProt P25090).
T1 construct: expressed in transfected cells; host or cells: HEK293 (JCRB9068, NIBIO), transient transfection with pCMV-script vectors using Lipofectamine 2000
T1 sequence (P25090 1-351): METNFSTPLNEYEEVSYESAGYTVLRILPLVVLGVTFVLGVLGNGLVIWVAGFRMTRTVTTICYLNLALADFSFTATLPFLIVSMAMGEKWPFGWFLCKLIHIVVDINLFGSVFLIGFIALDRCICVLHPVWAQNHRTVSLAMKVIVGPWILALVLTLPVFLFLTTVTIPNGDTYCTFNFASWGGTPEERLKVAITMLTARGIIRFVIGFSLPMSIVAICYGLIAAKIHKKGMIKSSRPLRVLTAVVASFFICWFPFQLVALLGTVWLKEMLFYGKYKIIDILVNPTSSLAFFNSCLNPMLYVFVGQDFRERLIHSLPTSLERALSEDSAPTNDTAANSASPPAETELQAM
Briefly: Measurement test of agonist activity on human FPRL1 (test of calcium mobilization in cell, HEK293 with human FPRL1 and Gα15 expression vectors). Type of test: cell-based. The conditions noted are these: calcium mobilization in HEK293 cells with human FPRL1 and Gα15 expression vectors. An excerpt:
Measurement Test of Agonist Activity on Human FPRL1
(1-1) Construction of Human FPRL1 Expression Vector
Human FPRL (SEQ ID NO: 3) was amplified in a PCR reaction from cDNA derived from a monocytic leukemia cell line THP-1 (TIB-202, ATCC) as a template using a forward primer shown in SEQ ID NO: 1, a reverse primer shown in SEQ ID NO: 2, and KOD-plus-ver. 2 (KOD-211, TOYOBO CO., LTD.). The amplified PCR product and pCMV-script vector (212220, STRATAGENE) were digested with Hind III (1060A, Takara Bio Inc.) and XhoI (1094A, Takara Bio Inc.), and the resultant digest was ligated with Ligation high ver. 2 (LGK-201, TOYOBO CO., LTD.). The ligation product was transformed into DH5α (DNA-901, TOYOBO CO., LTD.), cultured on a 100 μg/mL kanamycin-containing LB medium, and purified with HiSpeed Plasmid Maxi Kit (12662, QIAGEN).
(1-2) Construction of Human Gα15 Expression Vector
Human Gα15 (SEQ ID NO: 6) was amplified in a PCR reaction from cDNA derived from a myeloid leukemia cell line HL-60 (CCL-240, ATCC) as a template using a forward primer shown in SEQ ID NO: 4, a reverse primer shown in SEQ ID NO: 5, and KOD-plus-ver. 2. The amplified PCR product and pCMV-script vector were digested with Hind III and XhoI, and the resultant digest was ligated with Ligation high ver. 2. The ligation product was transformed into DH5α, cultured on a 100 μg/mL kanamycin-containing LB medium, and purified with HiSpeed Plasmid Maxi Kit.
(2-1) Method for Culturing and Subculturing HEK293
HEK293 (JCRB9068, NIBIO) was cultured in an incubator at 5% CO2 and 37° C. using DMEM (11885-092, GIBCO) containing 10% FBS and 1× Penicillin-Streptomycin (15140-122, GIBCO). Subculture was carried out as followings: The cells that reached 80 to 90% confluency were washed with PBS(−), separated using 0.25% Trypsin-EDTA (25200-072, GIBCO), centrifuged, re-suspended in a fresh medium, and then seeded in Collagen Type 1 Coated dish (4020-010, IWAKI) at a split ratio of 1:8 (cultured for 3 days).
(2-2) Introduction of Human FPRL1 and Gα15 Expression Vectors
HEK293 that reached 80 to 90% confluency was washed with PBS(−), separated using 0.25% Trypsin-EDTA, centrifuged, and re-suspended in a fresh medium excluding 1× Penicillin-Streptomycin. The cells were inoculated in a Collagen Type 1 coated 6-well plate (4810-010, IWAKI) to 5×10^5 cells/2.5 mL/well and cultured overnight. On the next day, human FPRL1 and Gα15 expression vectors were introduced using Lipofectamine 2000 transfection reagent (11668-019, Life technologies). First, the human FPRL1 and Gα15 expression vectors were diluted with Opti-MEM I Reduced Serum Medium (31985-070, GIBCO) to 2 μg/250 μL/well and Lipofectamine 2000 transfection reagent was diluted with Opti-MEM I Reduced Serum Medium to be 4 μL/250 μL/well. The vectors and reagent were softly diffused, and incubated at room temperature for 5 minutes. The vector solution was mixed with Lipofectamine 2000 transfection reagent in equal amounts. In order to form a composite of the vectors and Lipofectamine 2000 transfection reagent, the mixture was incubated at room temperature for 20 minutes, and added at 500 μL/well to the medium of inoculated cells. The treated cells were cultured for 24 hours, inoculated in Poly-D-Lysine coated 96-well plate (356640, BD Biosciences) at a cell density of 7×10^4 cells/100 μL/well, and cultured for another 24 hours. The resultant cells were used in a measurement test of calcium mobilization in the cells.
(3) Evaluation of Agonist Activity on Human FPRL1 (Test of Calcium Mobilization in Cell)
An appropriate amount of each test compound was first weighed, and dissolved to 10^−2 M by addition of dimethyl sulfoxide (DMSO). […]
(In general: A change in cytosolic calcium serves as a functional read-out for many receptors and channels.)
On to `CC(C)(C(=O)O)N1C[C@@H](c2cc3c(cc2F)OCC3)[C@H](NC(=O)Nc2ccc(F)cc2)C1=O` (relative stereo) [Example 22-2, (−)-2-{(3S*,4R*)-4-(6-Fluoro-2,3-dihydrobenzofuran-5-yl)-3-[3-(4-fluorophenyl)ureido]-2-oxopyrrolidin-1-yl}-2-methylpropanoic acid], for which the EC50 is 380 pM.

With `COc1cc(F)c([C@@H]2CN=C(Nc3ccccc3)[C@H]2NC(=O)Nc2ccc(F)cc2)c(F)c1` (relative stereo) [EXAMPLE 32-18, 1-[(3R*,4S*)-3-(2,6-difluoro-4-methoxyphenyl)-5-(phenylamino)-3,4-dihydro-2H-pyrrol-4-yl]-3-(4-fluorophenyl)urea], the EC50 was 540 pM. Regarding `COc1cnc([C@@H]2CNC(=O)[C@H]2NC(=O)Nc2ccc(Cl)s2)c(F)c1` (relative stereo) [Example 8-2, (−)-1-(5-chlorothiophen-2-yl)-3-[(3S*,4R*)-4-(3-fluoro-5-methoxypyridin-2-yl)-2-oxopyrrolidin-3-yl]urea], the concentration giving a half-maximal response (EC50) amounted to 1600 pM.

With `COc1cc(F)c([C@@H]2CNC(=O)[C@H]2NC(=O)Nc2ccc(C(F)(F)F)cc2)c(F)c1` (relative stereo) [Example 1-63, (−)-1-[(3S*,4R*)-4-(2,6-difluoro-4-methoxyphenyl)-2-oxopyrrolidin-3-yl]-3-[4-(trifluoromethyl)phenyl]urea], the EC50 came out at 920 pM. The same measure for `COc1cc(F)c([C@@H]2CN=C(Nc3ccn(C)n3)[C@H]2NC(=O)Nc2ccc(F)cc2)c(F)c1` (single isomer, unassigned) [EXAMPLE 32-16, (−)-1-{(3R*,4S*)-3-(2,6-difluoro-4-methoxyphenyl)-5-[(1-methyl-1H-pyrazol-3-yl)amino]-3,4-dihydro-2H-pyrrol-4-yl}-3-(4-fluorophenyl)urea]: 540 pM; for `CNc1cc(F)c([C@@H]2CNC(=O)[C@H]2NC(=O)Nc2ccc(F)cc2)c(F)c1` (single isomer, unassigned) [EXAMPLE 28-5, (−)-1-{(3S*,4R*)-4-[2,6-Difluoro-4-(methylamino)phenyl]-2-oxopyrrolidin-3-yl}-3-(4-fluorophenyl) urea]: 1420 pM. The same measure for `COc1ccc([C@@H]2CNC(=O)[C@H]2NC(=O)Nc2ccc(F)cc2)cc1F` (single isomer, unassigned) [EXAMPLE 1-8, (−)-1-[(3S*,4R*)-4-(3-fluoro-4-methoxyphenyl)-2-oxopyrrolidin-3-yl]-3-(4-fluorophenyl)urea]: 900 pM; for `COc1cc(F)c([C@@H]2CN(C)C(=O)[C@H]2NC(=O)Nc2ccc(F)cc2)c(F)c1` (relative stereo) [Example 24-1, (−)-1-[(3S*,4R*)-4-(2,6-Difluoro-4-methoxyphenyl)-1-methyl-2-oxopyrrolidin-3-yl]-3-(4-fluorophenyl)urea]: 90 pM. The same measure for `COc1c(F)cc([C@@H]2CNC(=O)[C@H]2NC(=O)Nc2ccc(F)cc2)cc1F` (single isomer, unassigned) [EXAMPLE 1-14, (−)-1-[(3S*,4R*)-4-(3,5-difluoro-4-methoxyphenyl)-2-oxopyrrolidin-3-yl]-3-(4-fluorophenyl)urea]: 4120 pM; for `COc1cc(F)c([C@@H]2CN(CC(=O)O)C(=O)[C@H]2NC(=O)Nc2ccc(F)cc2)c(F)c1` (relative stereo) [Example 16-2, (−)-2-{(3S*,4R*)-4-(2,6-difluoro-4-methoxyphenyl)-3-[3-(4-fluorophenyl)ureido]-2-oxopyrrolidin-1-yl}acetic acid]: 490 pM; for `COc1cc(F)c([C@@H]2CNC(=O)[C@H]2NC(=O)Nc2ccc(F)c(F)c2)c(F)c1` (relative stereo) [Example 7-9, (−)-1-[(3S*,4R*)-4-(2,6-difluoro-4-methoxyphenyl)-2-oxopyrrolidin-3-yl]-3-(3,4-difluorophenyl)urea]: 160 pM.

A word on the EC50: it is the concentration that produces a half-maximal response.
